We go through 7 compounds from patent US6706664B1, “Benzoxazole compounds, process for the preparation thereof and herbicides” (UBE Industries, Ltd., priority 1999, dated 2004).

Common to all, as to set-up: key: 0: normal development; 1: Less damaged; 2: Slightly damaged; 3: Moderately damaged; 4: Severely damaged; 5: All killed
In assay [1] the test system is annual bluegrass. Nature of the assay: Foliar spread test for upland field. In kind it is in vivo, Poa annua. To be noted: foliar spray 500 ppm, 3 weeks, rank vs non-treated. Put shortly: (§1)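 Scoring used a 0–5 scale, where 0 meant normal development and 5 meant all plants killed, assessed 3 weeks after treatment. Plants had been grown about 2 weeks from seed in volcanic ash soil before a uniform spray at 500 ppm containing 0.5% surfactant.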

The subject of assay [2] is livid amaranth. Nature of the assay: Foliar spread test for upland field. The format is in vivo, Amaranthus lividus. To be noted: foliar spray 500 ppm, 3 weeks, rank vs non-treated. Put shortly: as §1
The test system of assay [3] is green foxtail. Nature of the assay: Soil treatment test for upland field. The format is in vivo, Setaria viridis. To be noted: 500 g/ha, glass house 25° C., 3 weeks. Put shortly: (§2)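 Soil treatment, 500 g/ha, sprayed onto soil surface after sowing; alluvial Ube soil; 0.05% surfactant in diluent; glasshouse, avg 25° C, 3 wk; visual score 0–5 (5 = all killed).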
The subject of assay [4] is annual bluegrass. The assay is described as follows: Soil treatment test for upland field. Conditions: 500 g/ha, glass house 25° C., 3 weeks. In kind it is in vivo, Poa annua. Put shortly:
as §2

The subject of assay [5] is morning glory. The assay is described as follows: Foliar spread test for upland field. To be noted: foliar spray 500 ppm, 3 weeks, rank vs non-treated. In kind it is in vivo, Ipomoea spps. The gist of the method:
as §1

The subject of assay [6] is livid amaranth. Nature of the assay: Soil treatment test for upland field. In kind it is in vivo, Amaranthus lividus. Conditions: 500 g/ha, glass house 25° C., 3 weeks. Put shortly:
as §2

Assay [7] has as its system common lambsquartes. The assay is described as follows: Foliar spread test for upland field. In kind it is in vivo, Chenopodium album. Conditions: foliar spray 500 ppm, 3 weeks, rank vs non-treated. The gist of the method: as §1
Assay [8] concerns corn. The assay is described as follows: Foliar spread test for upland field. To be noted: foliar spray 500 ppm, 3 weeks, rank vs non-treated. The format is in vivo. The gist of the method: (§3)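 Two-week-old glasshouse seedlings on volcanic ash soil were treated by foliar spray at 500 ppm, with 0.5% surfactant in the diluent. Effects were graded visually after three weeks, from 0 for no injury to 5 for complete kill.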

The test system of assay [9] is wheat. The assay is described as follows: Foliar spread test for upland field. The format is in vivo. To be noted: foliar spray 500 ppm, 3 weeks, rank vs non-treated. The gist of the method: as §3
The test system of assay [10] is solgum. The assay is described as follows: Foliar spread test for upland field. To be noted: foliar spray 500 ppm, 3 weeks, rank vs non-treated. The format is in vivo. The gist of the method: as §3
Assay [11] relates to cotton. The assay is described as follows: Soil treatment test for upland field. Conditions: 500 g/ha, glass house 25° C., 3 weeks. In kind it is in vivo. Put shortly: as §2
In assay [12] the test system is corn. Nature of the assay: Soil treatment test for upland field. To be noted: 500 g/ha, glass house 25° C., 3 weeks. The format is in vivo. The gist of the method: as §2
Assay [13] has as its system wheat. The assay is described as follows: Soil treatment test for upland field. The format is in vivo. To be noted: 500 g/ha, glass house 25° C., 3 weeks. The gist of the method: as §2
The subject of assay [14] is sugar beat. Nature of the assay: Soil treatment test for upland field. In kind it is in vivo. To be noted: 500 g/ha, glass house 25° C., 3 weeks. Put shortly: as §2
Assay [15] has as its system soybean. The assay is described as follows: Soil treatment test for upland field. The format is in vivo. To be noted: 500 g/ha, glass house 25° C., 3 weeks. The gist of the method: as §2
Assay [16] deals with solgum. Nature of the assay: Soil treatment test for upland field. In kind it is in vivo. To be noted: 500 g/ha, glass house 25° C., 3 weeks. The gist of the method:
as §2

Assay [17] concerns Large crabgrass. Nature of the assay: Foliar spread test for upland field. The format is in vivo, Digitaria adscendens. Conditions: foliar spray 500 ppm, 3 weeks, rank vs non-treated. Put shortly:
as §1

The test system of assay [18] is green foxtail. The assay is described as follows: Foliar spread test for upland field. The format is in vivo, Setaria viridis. To be noted: foliar spray 500 ppm, 3 weeks, rank vs non-treated. The gist of the method:
as §1

Assay [19] relates to barnyardgrass. The assay is described as follows: Soil treatment test for upland field. In kind it is in vivo, Echinochloa crusgalli. Conditions: 500 g/ha, glass house 25° C., 3 weeks. The gist of the method: as §2
For assay [20], the system named is Large crabgrass. Nature of the assay: Soil treatment test for upland field. The format is in vivo, Digitaria adscendens. Conditions: 500 g/ha, glass house 25° C., 3 weeks. The gist of the method:
as §2

The subject of assay [21] is sugar beat. Nature of the assay: Foliar spread test for upland field. To be noted: foliar spray 500 ppm, 3 weeks, rank vs non-treated. The format is in vivo. The gist of the method:
as §3

Turning to `CCC(Oc1ccc(F)c(C(F)(F)F)c1)c1nc2cc(Br)ccc2o1` (stereo not drawn) [Compound 165], the “Effects Annual bluegrass” value is on record as 2 in assay [1] and 5 in [4]. Moreover, the “Effects Livid amaranth” value is given as 4 in assay [2] and 5 in assay [6]. The “Effects Green foxtail” value in assay [3] turned out to be 5; in assay [18], 4. The “Effects Morning glory” value in assay [5] was found to be 4. In addition, in [7], the “Effects Common lambsquarters” value is 3. Further, the “Effects Corn” value in assay [8] and in [12] was 2 each time. Besides, the “Effects Wheat” value in [9] is 2; in assay [13], 0. The “Effects Solgum” value in assay [10] is listed as 2; in assay [16], 1. The “Effects Cotton” value in assay [11] was determined as 0. Further, the “Effects Sugar beat” value in [14] turned out to be 5. The “Effects Soybean” value in assay [15] came out at 0. The figures for the “Effects Large crabgrass” value in assay [17] and in assay [20] were 3 and 5, respectively. Moreover, the “Effects Barnyardgrass” value in [19] was found to be 5.

Consider `CCC(Oc1ccc(F)c(C(F)(F)F)c1)c1nc2cc(C(F)(F)F)ccc2o1` (stereo not drawn) [Compound 197], for which the “Effects Annual bluegrass” value was determined as 2 in [1] and 5 in assay [4]. In addition, the “Effects Livid amaranth” value is listed as 4 in assay [2] and 5 in assay [6]. The “Effects Green foxtail” value in assay [3] and in assay [18] was 5 throughout. Besides, the “Effects Morning glory” value in assay [5] came out at 4. For the same compound, in [7], the “Effects Common lambsquarters” value came out at 4. The “Effects Corn” value in assay [8] is recorded as 4; in assay [12], 2. For the same compound, the “Effects Wheat” value in assay [9] and in assay [13] was 2 throughout. Moreover, the “Effects Solgum” value in assay [10] and in assay [16] was 2 each time. The “Effects Cotton” value in assay [11] was 3. For the same compound, the “Effects Sugar beat” value in assay [14] is 5. The results for the “Effects Large crabgrass” value in [17] and in [20] were 3 and 5, respectively. Besides, the “Effects Barnyardgrass” value in assay [19] is 5.

Regarding `CCC(Oc1ccc(F)c(C(F)(F)F)c1)c1nc2cc(Cl)ccc2o1` (stereo not drawn) [Compound 139], the “Effects Annual bluegrass” value is given as 3 in assay [1] and 5 in assay [4]. Also, the “Effects Livid amaranth” value in assay [2] and in assay [6] was 5 throughout. For the same compound, the “Effects Green foxtail” value came to 5 in [3] and 4 in assay [18]. The “Effects Morning glory” value in [5] came to 5. The “Effects Common lambsquarters” value in assay [7] was found to be 5. Besides, the “Effects Corn” value was found to be 3 in assay [8] and 2 in assay [12]. For the same compound, the results for the “Effects Wheat” value in assay [9] and in [13] were 2 and 1, respectively. Further, the “Effects Solgum” value in [10] and in assay [16] was 2 each time. For the same compound, the “Effects Cotton” value in assay [11] was 1. For the same compound, in assay [14], the “Effects Sugar beat” value was 5. For the same compound, the “Effects Soybean” value in assay [15] came to 1. Also, the “Effects Large crabgrass” value in assay [17] was found to be 2; in [20] it was 5. Moreover, the “Effects Barnyardgrass” value in assay [19] is given as 3.

As to `CCC(Oc1cccc(C(F)(F)F)c1)c1nc2cc(C#N)c(Cl)cc2o1` (stereo not drawn) [Compound 529], the results for the “Effects Annual bluegrass” value in assay [1] and in [4] were 4 and 5, respectively. Moreover, the “Effects Livid amaranth” value in assay [2] and in assay [6] was 5 throughout. Further, the “Effects Green foxtail” value in assay [3] and in [18] was 5 each time. Also, the “Effects Morning glory” value in assay [5] turned out to be 3. The “Effects Common lambsquarters” value in [7] was found to be 5. Besides, the “Effects Wheat” value in assay [9] was determined as 2. The “Effects Sugar beat” value in assay [21] and in assay [14] was 5 each time. In addition, the “Effects Solgum” value in assay [10] is 3; in assay [16], 1. The “Effects Corn” value in [12] was determined as 1. Besides, the “Effects Soybean” value in assay [15] is given as 1. For the same compound, the “Effects Large crabgrass” value in assay [17] stood at 4; in assay [20] it was 5. Further, the “Effects Barnyardgrass” value in assay [19] amounted to 5.

For the compound `CCCC(Oc1cccc(C(F)(F)F)c1)c1nc2cc(F)c(Cl)cc2o1` (stereo not drawn) [Compound 497], the “Effects Annual bluegrass” value in [1] turned out to be 2; in assay [4], 4. Further, the “Effects Livid amaranth” value in assay [2] and in assay [6] was 5 each time. In addition, the “Effects Green foxtail” value in assay [3] was determined as 5; in assay [18], 4. The “Effects Common lambsquarters” value in [7] came out at 2. Further, the “Effects Corn” value in [8] amounted to 2; in assay [12], 1. Moreover, the “Effects Wheat” value is listed as 2 in [9] and 1 in assay [13]. For the same compound, the “Effects Sugar beat” value in assay [21] and in [14] was 5 each time. The “Effects Solgum” value in assay [10] and in [16] was 1 each time. Moreover, the “Effects Cotton” value in [11] worked out at 1. Moreover, in [15], the “Effects Soybean” value is reported as 1. Also, the “Effects Large crabgrass” value in assay [17] is recorded as 2; in assay [20] it was 5.

For `CCC(Oc1ccc(F)c(C(F)(F)F)c1)c1nc2cc([N+](=O)[O-])ccc2o1` (stereo not drawn) [Compound 177], the “Effects Annual bluegrass” value in [1] is 4; in assay [4], 5. The “Effects Livid amaranth” value in assay [2] and in assay [6] was 5 in each case. Further, the “Effects Green foxtail” value in assay [3] and in assay [18] was 5 each time. Moreover, the “Effects Morning glory” value in assay [5] is reported as 5. The “Effects Common lambsquarters” value in assay [7] worked out at 4. The “Effects Corn” value in [8] and in [12] was 2 each time. Also, the “Effects Wheat” value in [9] and in assay [13] was 2 each time. In addition, the “Effects Solgum” value in assay [10] and in assay [16] was 2 in each case. Moreover, the “Effects Cotton” value in assay [11] is listed as 2. Also, the “Effects Sugar beat” value in assay [14] was determined as 5. In assay [15], the “Effects Soybean” value was found to be 1. The “Effects Large crabgrass” value worked out at 2 in [17] and 5 in assay [20]. Besides, the “Effects Barnyardgrass” value in assay [19] is 3.

Turning to `CCCC(Oc1ccc(F)c(C(F)(F)F)c1)c1nc2cc(Cl)ccc2o1` (stereo not drawn) [Compound 141], the “Effects Annual bluegrass” value was found to be 4 in [1] and 5 in assay [4]. In addition, the entries for the “Effects Livid amaranth” value in assay [2] and in assay [6] were 4 and 5, respectively. Further, the “Effects Green foxtail” value in [3] is 5; in [18], 4. In assay [5], the “Effects Morning glory” value stood at 4. The “Effects Common lambsquarters” value in [7] is 4. Moreover, the “Effects Corn” value turned out to be 2 in assay [8] and 1 in assay [12]. The “Effects Wheat” value in [9] turned out to be 2; in assay [13], 0. The “Effects Solgum” value in [10] was 1; in [16] it was 2. Besides, the “Effects Sugar beat” value in assay [14] amounted to 5. In addition, the “Effects Soybean” value in assay [15] was 2. Also, the “Effects Large crabgrass” value in assay [17] is 4; in [20], 5. In addition, the “Effects Barnyardgrass” value in assay [19] is 3.
